The values that follow are results of earlier work, collected in patent US20140073694A1, “CYSTAMINE ANALOGUES FOR THE TREATMENT OF PARKINSON'S DISEASE” (UNIVERSITE LAVAL, priority 2011, published 2014).

This series relates to Huntington's disease patients. As to conditions: cited from earlier work.

With `NCCS.O=C(O)C(O)C(O)C(=O)O` (centres unmarked) [cysteamine bitartrate], the clinical efficacy entry is given as “clinical efficacy was not demonstrated”. The tolerable dose (dose escalation 10 to 70 mg/kg per day) was 20 mg/kg per day.
